Assay [1] relates to S100A8-mediated cell migration. The following applies: ref [8]; cited from earlier work. From the text:
VEGF is another NFκB-mediated re ...

A further assay deals with CD8+ cells. As to conditions: LLC-tumor-bearing mice; ref [8]; cited from earlier work.
Another assay has as its system TLR4. As to conditions: ref [33], [34]; cited from earlier work. From the text:
The difference between TAK-242 and our inhibitory peptides is the target molecules. […] Qin et al. previously generated two peptibodies, peptide-Fc fusion proteins, targeting mouse MDSCs using a competitive peptide phage display platform. Peptibodies recognize the cell surface of mouse MDSCs. Although peptibodies also recognize S100A9, mouse MDSCs ar ...

A further assay deals with T1, TLR4/MD-2 complex (Homo sapiens, UniProt O00206+Q9Y6Y9).
T1 construct: TLR4/MD-2 recombinant protein (2 µg/ml) was added to each well
T1 sequence (O00206 24-631 limits assumed): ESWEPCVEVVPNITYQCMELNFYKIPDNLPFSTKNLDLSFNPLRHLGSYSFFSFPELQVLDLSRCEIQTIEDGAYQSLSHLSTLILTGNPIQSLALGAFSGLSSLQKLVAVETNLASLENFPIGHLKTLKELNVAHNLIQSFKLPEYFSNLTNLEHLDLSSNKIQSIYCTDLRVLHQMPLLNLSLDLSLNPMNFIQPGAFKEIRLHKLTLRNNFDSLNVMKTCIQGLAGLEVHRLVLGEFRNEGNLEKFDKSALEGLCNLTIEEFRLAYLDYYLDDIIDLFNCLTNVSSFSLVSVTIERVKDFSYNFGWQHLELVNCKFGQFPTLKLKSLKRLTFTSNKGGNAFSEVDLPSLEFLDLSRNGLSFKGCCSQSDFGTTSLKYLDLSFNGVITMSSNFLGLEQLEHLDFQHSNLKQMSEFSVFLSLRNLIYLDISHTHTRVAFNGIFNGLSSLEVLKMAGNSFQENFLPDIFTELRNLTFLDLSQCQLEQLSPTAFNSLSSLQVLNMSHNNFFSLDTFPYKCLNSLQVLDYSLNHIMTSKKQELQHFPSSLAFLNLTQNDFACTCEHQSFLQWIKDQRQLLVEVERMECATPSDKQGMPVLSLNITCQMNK
T1 sequence (Q9Y6Y9 17-160 partner limits assumed): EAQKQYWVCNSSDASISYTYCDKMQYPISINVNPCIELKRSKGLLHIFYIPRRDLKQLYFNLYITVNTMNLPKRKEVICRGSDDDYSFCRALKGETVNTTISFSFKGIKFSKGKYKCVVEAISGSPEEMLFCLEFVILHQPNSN
In words: TLR4/MD-2 binding to immobilized tetravalent ILVIK (ELISA). As to conditions: various TLR4/MD-2 concentrations, one representative of three experiments (Fig. 7F). The method, then:
S100A8 recombinant protein was purified as previously described. These proteins were immobilized on Maxisorp plates (Thermo Fisher Scientific, Waltham, MA, USA), followed by blocking with protein-free blocking buffer (Thermo Fisher Scientific). TLR4/MD-2 recombinant proteins with various concentrations of candidate peptides were then added to the indicated S100A8-immobilized ELISA plates for 2 h. The plates were washed, incubated with anti-TLR4 antibody, and HRP-conjugated secondary antibody, followed by the addition of substrate. The reaction was stopped by addition a 2N H2SO4 solution. Absorbance OD450/OD650 was measured using a microplate reader (Thermo Fisher Scientific). Maxisorp plates were also used for peptide coating. After blocking with protein-free blocking buffer, the coated plates were washed, and TLR4/MD-2 recombinant protein (2 µg/ml) was added to each well. The plates were incubated with a TLR4 antibody followed by horseradish peroxidase (HRP)-labeled anti-rabbit IgG. […] The amount of interleukin-8 (IL-8) or VEGF in the supernatants were analyzed by ELISA kits (R&D Systems, Mineapolis, MN) according to the manufacturer’s instructions.
Fig. 7 Isolation of multivalent S100A8 inhibitory peptides using divalent peptide libraries based on the sequences of peptide3A5. […] The binding affinities to TLR4/MD-2 complex were determined using an ELISA-based assay. […]
On the technique in general: An ELISA detects its analyte on a solid surface through an enzyme-linked reagent.

Assay [2] has as its system SW480-transplanted xenograft. Kind of assay: Tumor growth in SW480-transplanted xenograft model. The class given is in vivo, Balb nu/nu mice. The following applies: SW480 xenograft, various concentrations every 3 days, *P < 0.05 vs control.
Assay [3] deals with tumor cells and macrophages. In words: Cytokine/chemokine induction in tumor cells and macrophages. The following applies: possible mechanism scheme, Fig. 7I. The class given is cell-based.
The next assay relates to human TLR4/MD-2 complex. In words: ELISA, TLR4/MD-2 binding to immobilized S100A8-derived peptides (overlapping peptides, alanine scan). The following applies: ELISA, peptide immobilized, TLR4/MD-2 2 µg/ml. The method, then: (§1) S100A8 recombinant protein was purified as previously described. These proteins were immobilized on Maxisorp plates (Thermo Fisher Scientific, Waltham, MA, USA), followed by blocking with protein-free blocking buffer (Thermo Fisher Scientific). TLR4/MD-2 recombinant proteins with various concentrations of candidate peptides were then added to the indicated S100A8-immobilized ELISA plates for 2 h. The plates were washed, incubated with anti-TLR4 antibody, and HRP-conjugated secondary antibody, followed by the addition of substrate. The reaction was stopped by addition a 2N H2SO4 solution. Absorbance OD450/OD650 was measured using a microplate reader (Thermo Fisher Scientific). Maxisorp plates were also used for peptide coating. After blocking with protein-free blocking buffer, the coated plates were washed, and TLR4/MD-2 recombinant protein (2 µg/ml) was added to each well. The plates were incubated with a TLR4 antibody followed by horseradish peroxidase (HRP)-labeled anti-rabbit IgG. For detection of IL8 and VEGF in culture supernatants, SW480 cells were pretreated with the indicated peptides, and followed by stimulation with S100A8 for 24 h. The amount of interleukin-8 (IL-8) or VEGF in the supernatants were analyzed by ELISA kits (R&D Systems, Mineapolis, MN) according to the manufacturer’s instructions.
(§2) Fig. 2 Identification of S100A8 binding sites to human TLR4/MD-2. […] TLR4/MD-2 recombinant proteins were immobilized to the ELISA plate. After blocking, a full length or deletion mutant of S100A8 was added to the plate. The more detailed methods are described in Materials and Methods. […] B A series of overlapping S100A8 synthetic peptides. The TLR4/MD-2 recombinant proteins were added to each well of peptide immobilized plates. The affinity to TLR4/MD-2 was determined. Data are shown as mean ± SD. C The competitive activity was determined using ELISA. Data are shown as mean ± SD. D The TLR4/MD-2 was mixed with S100A8 with/without the indicated peptides, and immunoprecipitated using an anti-TLR4 antibody. TLR4 or S100A8 was visualized. Similar results were obtained in three independent experiments. […] Total RNAs from SW480 cells with/without treatment of the peptide candidates were extracted and qPCR analysis was performed using relevant primer sets and SYBR green. Relative expression levels were compared. […] TEXT PRINTED IN THE PICTURE: (A) Full length: TLR4/MD-2 binding: + | (A) S100A8-ΔC: TLR4/MD-2 binding: − | (A) S100A8-N: TLR4/MD-2 binding: −
Fig. 3 Identification of high affinity peptides to TLR4/MD-2 using alanine scanning based on the peptide #3 amino acid sequences. A Lists of peptides used for alanine scanning. […] Similar results were obtained in three independent experiments.

Assay [4] has as its system SW480 cells. Kind of assay: ELISA, IL-8 and VEGF secretion of SW480 cells. The following applies: peptide pretreatment, S100A8 24 h, supernatant ELISA, *P < 0.05 vs S100A8. The assay is classed as cell-based, human. The method, then: as §1
In the next assay the test system is S100A8-TLR4/MD-2 complex. Kind of assay: Competitive inhibition of S100A8-TLR4/MD-2 binding (ELISA, S100A8 immobilized; also immunoprecipitation). The following applies: ELISA (Fig. 2C), immunoprecipitation with anti-TLR4 antibody (Fig. 2D). On the set-up: species or system human. The method, then: as §1, §2
(§3) Fig. 4 Improvement of competitive inhibition activity by divalent peptide3A5. A The binding capacity was measured at the indicated concentration using an ELISA-based assay. Similar results were obtained in three independent experiments. B SW480 cells were pretreated with 2.5 µM of divalent peptide3A5, and then stimulated with human S100A8 recombinant protein. After 30 min, cell lysates were subjected to western blotting using the indicated antibody. The divalent peptide#3 or peptide3A5 reduced the expression of S100A8-mediated IL-8 (C) and VEGF (D) induction. Total RNAs from SW480 cells with/without treatment of the peptide candidates were extracted and qPCR analysis was performed using relevant primer sets and SYBR green. Relative expression levels were compared. Peptide #3 suppresses S100A8-mediated IL-8(E) and VEGF (F) secretion in SW480 cells.

For assay [5], the system named is SW480 cells. Kind of assay: S100A8-mediated cell migration of SW480 cells. As to conditions: Supplementary Fig. 1B. The assay is classed as cell-based, human.
In assay [6] the test system is SW480 cells. Kind of assay: qPCR, S100A8-mediated IL-8 and VEGF mRNA induction in SW480 cells. The assay is classed as cell-based, human. The method, then: SW480 cells were treated with S100A8 in Dulbecco’s Modified Eagle Medium/HamF12 supplemented with 0.1% bovine serum albumin for cytokine induction. Total RNA was extracted using the RNeasy Mini Plus (Qiagen, Hilden, Germany). Complementary DNA was synthesized using the PrimeScript 1st Strand Synthesis kit (Takara Bio, Japan). Quantitative PCR (qPCR) analysis was performed using the PowerUp^TM SYBR^TM Green mixture (Thermo Fisher Scientific) and the StepOnePlus Real Time PCR System (Thermo Fisher Scientific). Gene expression levels were calculated from Ct values, and the relationship between the Ct value and the logarithm of the copy number of a target gene was confirmed to be on a linear line using the corresponding isolated DNA and its serial dilutions as a standard. Thus, the gene expression levels of IL-8 and VEGF were normalized against that of β-actin in each sample. The following primers were used; β-actin, 5′-[…]-3′ and 5′-[…]-3′; IL-8, 5′-[…]-3′ and 5′-[…]-3′; VEGF, 5′-[…]-3′ and 5′-[…]-3′.
as §2, §3
Background: In qPCR the cycle at which signal appears reflects the starting amount.

Positions of bridges follow the written chain, without caps; N, C: chain ends. Non-standard residues stand in square brackets, D forms with d. Residues, ends and D or L forms follow the SMILES beside them. Chains are numbered I, II in the order given. ξ: configuration not given here. ξK = NCCCCC(N)C(=O)O; Ahx = NCCCCCC(=O)O

By Kd is commonly meant the equilibrium constant for the complex coming apart. Low readings indicate higher affinity, high ones lower affinity.

Turning to `CCCCCC/C=C\CCCCCCCCCC(=O)N[C@H]1[C@H](OC[C@H]2O[C@H](OP(=O)(O)O)[C@H](NC(=O)CC(=O)CCCCCCCCCCC)[C@@H](OCCCCCCCCCC)[C@@H]2O)O[C@H](COC)[C@@H](OP(=O)(O)O)[C@@H]1OCC[C@@H](CCCCCCC)OC` [Eritoran, reference compound], the “S100A8-mediated cell migration, Eritoran” value in [1] was “inhibited S100A8-mediated cell migration”. Besides, the “intratumoral infiltration of CD8+ cells, Eritoran” value in the assay on CD8+ cells is “increased intratumoral infiltration of CD8^+ cells”.

In the case of `CCOC(=O)C1=CCCC[C@H]1S(=O)(=O)Nc1ccc(F)cc1Cl` [TAK-242, ethyl (6R)-6-[N-(2-Chloro-4-fluorophenyl)sulfamoyl]cyclohex-1-ene-1-carboxylate], the “TLR4 inhibition, site” value with TLR4 was “inhibits TLR4 at intracellular domains”.

In the case of `CC[C@H](C)[C@H](NC(C)=O)C(=O)N[C@@H](CC(C)C)C(=O)N[C@H](C(=O)N[C@H](C(=O)N[C@@H](CCCCN)C(=O)NCCCCCC(=O)NCCCCC(NC(=O)CCCCCNC(=O)[C@H](CCCCN)NC(=O)[C@@H](NC(=O)[C@@H](NC(=O)[C@H](CC(C)C)NC(=O)[C@@H](NC(C)=O)[C@@H](C)CC)C(C)C)[C@@H](C)CC)C(=O)NCCCCC(NC(=O)C(CCCCNC(=O)CCCCCNC(=O)[C@H](CCCCN)NC(=O)[C@@H](NC(=O)[C@@H](NC(=O)[C@H](CC(C)C)NC(=O)[C@@H](NC(C)=O)[C@@H](C)CC)C(C)C)[C@@H](C)CC)NC(=O)CCCCCNC(=O)[C@H](CCCCN)NC(=O)[C@@H](NC(=O)[C@@H](NC(=O)[C@H](CC(C)C)NC(=O)[C@@H](NC(C)=O)[C@@H](C)CC)C(C)C)[C@@H](C)CC)C(N)=O)[C@@H](C)CC)C(C)C` (some centres unmarked) [Tetravalent ILVIK] (I: Ac-ILVIK[Ahx][ξK][ξK]-NH2 / II: Ac-ILVIK[Ahx][ξK] / III: Ac-ILVIK[Ahx] / IV: Ac-ILVIK[Ahx]; amide I:7-IV:C, I:8-II:C, II:7-III:C), the Kd at TLR4/MD-2 complex is 4.58 to 8.78 nM. The “tumor growth, multivalent ILVIK” value in assay [2] was “inhibits tumor growth”; in assay [2] (listed as tetravalent ILVIK), “more effectively inhibited tumor progression”. Further, the induction of cytokines/chemokines entry in assay [3] is “suppress the induction of cytokines/chemokines in both tumor cells and macrophages”.

In the case of “FQEFLILVIK [Peptide #3, S100A8-derived peptide […] from the carboxyl terminal region]”, the “TLR4/MD-2 binding of peptide” value with human TLR4/MD-2 complex was “most strongly bound to the TLR4/MD-2 complex among a series of S100A8-derived peptides”; in the assay on human TLR4/MD-2 complex (listed as peptide #3), “could bind to TLR4/MD-2”. Also, the “S100A8-mediated IL-8 secretion” value with SW480 cells [4] is listed as “suppresses S100A8-mediated IL-8 secretion”; with SW480 cells [4] (listed as peptide#3), “suppressed”. The “S100A8-mediated VEGF secretion” value in the assay on SW480 cells [4] is recorded as “suppresses”. In addition, the “competition for S100A8-TLR4/MD-2 binding” value in the assay with S100A8-TLR4/MD-2 complex was “competed for binding between S100A8 and the TLR4/MD-2 complex”. In addition, the S100A8-mediated cell migration result with SW480 cells [5] was “significantly inhibited”. Further, in the assay with SW480 cells [6] (no S100A8), the “IL-8 induction by peptide alone (agonism)” value is given as “failed to induce IL-8 production”. Besides, in the assay on SW480 cells [6] (qPCR, normalized to β-actin), the “S100A8-mediated VEGF induction (mRNA)” value is given as “suppressed S100A8-induced VEGF induction”. Moreover, in the assay on SW480 cells [6] (qPCR, normalized to β-actin, *P < 0.05 vs S100A8), the “S100A8-mediated IL-8 induction (mRNA)” value is recorded as “reduces the expression of S100A8-mediated IL-8 induction”.
